# Target: T1, mTORC1 (mTOR kinase complex) (Homo sapiens, UniProt P42345)
# T1 construct: mTORC1 complex immunoprecipitated from HEK293T cells expressing HA-tagged Raptor; with Raptor (HA-tagged; mTORC1 complex)
# Assay: in vitro kinase assay, immunoprecipitated mTORC1, GST-4EBP1 substrate, […] EPA (single concentration)
# Assay type: biochemical
smiles,measurement,value
"CC/C=C\C/C=C\C/C=C\C/C=C\C/C=C\CCCC(=O)O [EPA, eicosapentaenoic acid]","in vitro kinase assay, immunoprecipitated mTORC1, GST-4EBP1 substrate, 100 μM EP","The addition of EPA, but not EPA-EE, caused significant inhibition of 4EBP1 phosphorylation by immunoprecipitated mTORC1"
